Several values for one entry are separate records, joined by “and”; a condition that tells them apart may be missing. Equal entries are not always repeated.
Experiments:
NMDA receptor = experiment: Competition binding, [^3 H]CGP 39653, mouse cortical membranes; conditions: for Effect on binding of [^3 H]CGP 39653: 0.01 to 100 uM
Description: (§1) Affinity of selected reference drugs for the NMDA receptor
(§2) labeled with [^3 H]CGP 39653 and the PCP receptor
(§3) labeled with [^3 H]MK-801, relatively to the effect of
(§4) NOS inhibitors, in mouse cortical membranes.
(§5) Competition binding assays were carried out using 14 nM [^3 H]CGP 39653 and 2 nM [^3 H]MK-801. L-NAME and NO-Arg at a concentration range of 0.01 to 100 uM, each, had no effect (N.E.) on the binding of the two tritium labeled ligands. Data represents the mean ±S.D. of three experiments.

PCP receptor = experiment: Competition binding, [^3 H]MK-801, mouse cortical membranes; conditions: for [^3 H]MK-801 Ki / Ki: 2 nM [^3 H]MK-801, mouse cortical membranes, mean ± S.D. of three experiments, N.E. = no effect at 0.01 to 100 uM; for Effect on binding of [^3 H]MK-801: 0.01 to 100 uM
Description: as §1, §2, §3, §4, §5

[1] = tested on: cocaine induced seizures and lethality in Swiss-Webster mice; experiment: Effect of repeated cocaine administration on convulsive response and survival of mice pretreated with saline or NOS inhibitor; assay type: in vivo; conditions: for Protection against development of convulsions / Protection against lethal effects of cocaine: 60 min before cocaine 45 mg/kg/day, 7 days; for Convulsions (number of animals that seized) / Convulsions (percentage) / Survival (number of animals that survived) / Survival (percentage): saline or L-NAME (100 mg/kg) 60 min before cocaine 45 mg/kg i.p. daily
Text: In the search for safer agents that may be useful in treating cocaine induced toxicity, Applicant has discovered that drugs that block the enzyme nitric oxide (NO) synthase completely abolish cocaine induced seizures and lethality in mice (see TABLE 1). NO synthase inhibitors such as N-nitro-L-arginine methyl ester (L-NAME) and N-nitro-L-arginine (NO-Arg) are known drugs used clinically for the treatment of septic shock. […] Thus, it is though that NO, a putative neurotransmitter in the brain, is involved in DA-receptor mediated neurotoxicity. Applicant's recent studies are the first to document that NOS inhibitors have protective effects against cocaine induced toxicity. FIG. 1 and FIG. 2. Briefly, Swiss-Webster mice were pretreated with either saline, L-NAME (100 mg/kg/day) or NO-Arg (25 mg/kg/day) 60 min before the administration of cocaine (45 mg/kg/day) for 7 days. The progressive increase in the adverse and toxic effects of repetitive cocaine was manifested by an increase in the convulsive and lethal responses to cocaine. Following the 7th day of saline/cocaine treatment only 60% of the animals survived, and 100% of the animals seized.
Effect of repeated cocaine administration on convulsive
response and survival of Swiss-Webster mice pretreated with
either saline or L-NAME. Mice received a Single i.p.
injection of cocaine (45 mg/kg) each day 60 min after
pretreatment with either saline or L-NAME (100 mg/kg). Data
is expressed as the total number of animals that seized
and survived following the drugs treatment in three separate
experiments. Numbers in parentheses indicate percentage.

[2] = 14 nM [^3 H]CGP 39653, mouse cortical membranes, mean ± S.D. of three experiments, N.E. = no effect at 0.01 to 100 uM

With NC(CCCP(=O)(O)O)C(=O)O (stereo not drawn) [AP-5] the Ki (NMDA receptor; [2]) was 2230 ± 180 nM.

For COC(=O)[C@@H](N)CCCN=C(N)N[N+](=O)[O-] [L-NAME, N-nitro-L-arginine methyl ester], the “[^3 H]CGP 39653 Ki” value (NMDA receptor; [2]) was “N.E”, the “Effect on binding of [^3 H]CGP 39653” value (NMDA receptor) was “no effect” and the “[^3 H]MK-801 Ki” value (PCP receptor) was “N.E”. The “Effect on binding of [^3 H]MK-801” value (PCP receptor) was “no effect”, the “Protection against development of convulsions” value ([1]; L-NAME 100 mg/kg/day) was “completely protected” and the “Protection against lethal effects of cocaine” value ([1]; L-NAME 100 mg/kg/day) was “completely protected”. For the same compound, the “Convulsions (number of animals that seized)” value ([1]; day 1) was 0/30, the “Convulsions (percentage)” value ([1]; day 1) was 0% and the “Survival (number of animals that survived)” value ([1]; day 1) was 30/30. For the same compound, the “Survival (percentage)” value ([1]; day 1) was 100%, the “Convulsions (number of animals that seized)” value ([1]; day 2) was 1/30 and the “Convulsions (percentage)” value ([1]; day 2) was 3%. The “Survival (number of animals that survived)” value ([1]; day 2) was 30/30, the “Survival (percentage)” value ([1]; day 2) was 100% and the “Convulsions (number of animals that seized)” value ([1]; day 3) was 2/30. For the same compound, the “Convulsions (percentage)” value ([1]; day 3) was 6%, the “Survival (number of animals that survived)” value ([1]; day 3) was 30/30 and the “Survival (percentage)” value ([1]; day 3) was 100%. The “Convulsions (number of animals that seized)” value ([1]; day 4) was 0/30, the “Convulsions (percentage)” value ([1]; day 4) was 0% and the “Survival (number of animals that survived)” value ([1]; day 4) was 30/30. The “Survival (percentage)” value ([1]; day 4) was 100%, the “Convulsions (number of animals that seized)” value ([1]; day 5) was 1/30 and the “Convulsions (percentage)” value ([1]; day 5) was 3%. For the same compound, the “Survival (number of animals that survived)” value ([1]; day 5) was 30/30, the “Survival (percentage)” value ([1]; day 5) was 100% and the “Convulsions (number of animals that seized)” value ([1]; day 6) was 1/30. For the same compound, the “Convulsions (percentage)” value ([1]; day 6) was 3%, the “Survival (number of animals that survived)” value ([1]; day 6) was 30/30 and the “Survival (percentage)” value ([1]; day 6) was 100%. For the same compound, the “Convulsions (number of animals that seized)” value ([1]; day 7) was 0/30, the “Convulsions (percentage)” value ([1]; day 7) was 0% and the “Survival (number of animals that survived)” value ([1]; day 7) was 30/30. For the same compound, the “Survival (percentage)” value ([1]; day 7) was 100%.

C[C@]12N[C@H](Cc3ccccc31)c1ccccc12 [MK-801] showed a Ki (PCP receptor) of 3 ± 0.2 nM.

NC(=NCCC[C@H](N)C(=O)O)N[N+](=O)[O-] [NO-Arg, N-nitro-L-arginine] was tested, and the “[^3 H]CGP 39653 Ki” value (NMDA receptor; [2]) was “N.E”, the “Effect on binding of [^3 H]CGP 39653” value (NMDA receptor) was “no effect” and the “[^3 H]MK-801 Ki” value (PCP receptor) was “N.E”. For the same compound, the “Effect on binding of [^3 H]MK-801” value (PCP receptor) was “no effect”, the “Protection against development of convulsions” value ([1]; NO-Arg 25 mg/kg/day) was “completely protected” and the “Protection against lethal effects of cocaine” value ([1]; NO-Arg 25 mg/kg/day) was “completely protected”.

In the case of c1ccc(C2(N3CCCCC3)CCCCC2)cc1 [PCP], the Ki (PCP receptor) is reported as 55 ± 4 nM.

COC(=O)[C@H]1[C@@H](OC(=O)c2ccccc2)C[C@@H]2CC[C@H]1N2C [cocaine] was tested, and the “Convulsions had occurred (in words)” value ([1]; by the seventh day, uniform daily doses of cocaine) was “in all animals”, the “Convulsions (number of animals that seized)” value ([1]; day 1) was 4/36 and the “Convulsions (percentage)” value ([1]; day 1) was 11%. For the same compound, the “Survival (number of animals that survived)” value ([1]; day 1) was 36/36, the “Survival (percentage)” value ([1]; day 1) was 100% and the “Convulsions (number of animals that seized)” value ([1]; day 2) was 14/36. For the same compound, the “Convulsions (percentage)” value ([1]; day 2) was 38%, the “Survival (number of animals that survived)” value ([1]; day 2) was 36/36 and the “Survival (percentage)” value ([1]; day 2) was 100%. The “Convulsions (number of animals that seized)” value ([1]; day 3) was 20/36, the “Convulsions (percentage)” value ([1]; day 3) was 55% and the “Survival (number of animals that survived)” value ([1]; day 3) was 36/36. For the same compound, the “Survival (percentage)” value ([1]; day 3) was 100%, the “Convulsions (number of animals that seized)” value ([1]; day 4) was 22/34 and the “Convulsions (percentage)” value ([1]; day 4) was 65%. The “Survival (number of animals that survived)” value ([1]; day 4) was 34/36, the “Survival (percentage)” value ([1]; day 4) was 94% and the “Convulsions (number of animals that seized)” value ([1]; day 5) was 24/33. The “Convulsions (percentage)” value ([1]; day 5) was 72%, the “Survival (number of animals that survived)” value ([1]; day 5) was 33/36 and the “Survival (percentage)” value ([1]; day 5) was 91%. For the same compound, the “Convulsions (number of animals that seized)” value ([1]; day 6) was 26/27, the “Convulsions (percentage)” value ([1]; day 6) was 96% and the “Survival (number of animals that survived)” value ([1]; day 6) was 27/36. For the same compound, the “Survival (percentage)” value ([1]; day 6) was 75%, the “Convulsions (number of animals that seized)” value ([1]; day 7) was 22/22 and the “Convulsions (percentage)” value ([1]; day 7) was 100%. For the same compound, the “Survival (number of animals that survived)” value ([1]; day 7) was 22/36 and the “Survival (percentage)” value ([1]; day 7) was 60% and 61%.

— US5441982A, “Therapeutics for management of cocaine induced toxicity” (priority 1993, dated 1995)
